Source: patent publication US6573255B1, “Vitamin D analogues” (Leo Pharmaceutical Products Ltd., A/S, priority 1999, dated 2003)
Like-named read-outs stand apart in the source and are kept apart here.

Experiments:
U937 leukemia cell = U937 leukemia cell assay (antiproliferative activity); assay type: cell-based; settings: for U937, -log IC50: U937 leukemia cells; for U937, rel.: geometric mean of the ratios relative to 1α,25(OH)2D3, higher = more potent
Excerpt: (§1) The present invention provides a hitherto undisclosed series of vitamin D analogues which is characterised by the presence of an additional hydroxy group or halogen atom in the 26 position of the side chain.

HaCaT = HaCaT assay, a psoriasis model; assay type: cell-based; settings: for HaCaT, -log IC50: HaCaT cells; for HaCaT, rel.: geometric mean of the ratios relative to 1α,25(OH)2D3, higher = more potent
Excerpt: as §1

[1] = in vitro model of metabolic stability, rat liver homogenate S-9; assay type: in vitro ADME
Excerpt: Another problem using vitamin D analogues in the non-topical treatment of hyperproliferative diseases, such as cancer, is metabolic stability in vivo. This stability has to be above a certain minimum level, for a compound to be used in practical therapy.

[2] = tested on: MCF-7 mammary cancer cell; test: MCF-7 mammary cancer cell assay (antiproliferative activity); assay type: cell-based; settings: for MCF-7, -log IC50: MCF-7 mammary cancer cells; for MCF-7, rel.: geometric mean of the ratios relative to 1α,25(OH)2D3, higher = more potent
Excerpt: as §1

[3] = calcemic activity, rat calciuric model (urinary excretion of calcium)
Excerpt: as §1

[4] = tested on: different types of cancer cells; settings: brain glial tumor, MCF-7, NB4, HL-60, acute myeloid leukemia, MG-63 cells; cited from earlier work
[5] = chronically uraemic rats with secondary hyperparathyroidism; cited from earlier work
mammary tumours = settings: rats with mammary tumours, 1 μg/kg body weight for 28 days; cited from earlier work
[6] = relative to 1α,25(OH)2D3; cited from earlier work
human carcinoma cells = settings: in vitro; cited from earlier work

| SMILES | U937, -log IC50 (U937 leukemia cell) | U937, rel. (U937 leukemia cell) | HaCaT, -log IC50 (HaCaT) | HaCaT, rel. (HaCaT) | S-9, metab. in vitr.: fraction left after 1 hour incubation [1] | MCF-7, -log IC50 [2] | MCF-7, rel. [2] | Calcem.; in vivo ([3]; rat, in vivo) | T½ ([1]; rat liver homogenate S-9) [h] | half-life ([1]; rat) [h] | inhibitory activity on proliferation of cancer cells [4] | plasma PTH level [5] | plasma phosphate level [5] | reduction of the initial tumour volume (mammary tumours) [%] | serum calcium concentration (mammary tumours) | calcemic vitamin D activity, urinary excretion of calcium in rats, % of that of 1α,25(OH)2D3 [6] [%] | inhibiting the invasiveness of human carcinoma cells (human carcinoma cells) | S-9, metab. in vitr.: fraction left after 1 hour incubation ([1]; rat liver homogenate S-9, 1 hour incubation) | stability in in vitro model of metabolic stability ([1]; rat liver homogenate S-9, compared to seocalcitol and 1α,25(OH)2D3) | Calcem.; in vivo ([3]; rat calciuric model, geometric mean of the ratios relative to 1α,25(OH)2D3) |
| --- | --- | --- | --- | --- | --- | --- | --- | --- | --- | --- | --- | --- | --- | --- | --- | --- | --- | --- | --- | --- |
| C=C1/C(=C\C=C2/CCC[C@]3(C)[C@@H]([C@@H](C)[C@@H](C#CC[C@@](O)(CC)[C@@H](C)O)OCC)CC[C@@H]23)C[C@@H](O)C[C@@H]1O [Compound 108, 1(S),3(R)-Dihydroxy-20(R)-(5(S),6(R)-dihydroxy-1(S)-ethoxy-5-ethyl-2-heptyn-1-yl)-9,10-secopregna-5(Z),7(E),10(19)-triene] | 8.9 ± 0.2 | 49 | 8.8 ± 0.2 | 30 | 0.29 | 9.8 ± 0.2 | 89 | 0.6 | – | – | – | – | – | – | – | – | – | – | – | – |
| C=C1C(=CC=C2CCCC3(C)C2CCC3C(C)C(C#CCC(O)(CC)C(C)O)OCC)CC(O)CC1O [Compound 103, 1(S),3(R)-Dihydroxy-20(R)-(5(S),6(S)-dihydroxy-1(S)-ethoxy-5-ethyl-2-heptyn-1-yl)-9,10-secopregna-5(Z),7(E),10(19)-triene] | 9.0 ± 0.2 | 36 | 9.0 ± 0.3 | 38 | 0.43 | 9.9 ± 0.1 | 153 | 0.11 | – | – | – | – | – | – | – | – | – | – | – | – |
| C=C1/C(=C\C=C2/CCC[C@]3(C)[C@@H]([C@H](C)CCCC(C)(C)O)CC[C@@H]23)C[C@@H](O)C[C@@H]1O [1α,25(OH)2D3] | 7.5 ± 0.3 | 1.0 | – | 1.0 | – | 7.7 ± 0.3 | 1.0 | 1.0 | 2.5 | – | – | – | – | – | – | – | – | – | – | – |
| C=C1/C(=C\C=C2/CCC[C@]3(C)[C@@H]([C@H](C)/C=C/C=C/C(O)(CC)CC)CC[C@@H]23)C[C@@H](O)C[C@@H]1O [seocalcitol] | – | – | – | – | – | – | – | – | – | 1.3 | – | – | – | – | – | – | – | – | – | – |
| C=C1C(=CC=C2CCCC3(C)C2CCC3C(C)C(C#CCC(O)(CC)CC)OCC)CC(O)CC1O (stereo not drawn) [CB1093, 20-epi-22-ethoxy-23-yne-24a, 26a, 27a, trishomo-1α,25(OH)2D3 vitamin D3] | 9.5 ± 0.1 | 74 | 8.7 ± 0.9 | 18 | – | 10.2 ± 0.3 | 311 | – | – | – | potent inhibitory activity | significantly decreased | significantly decreased | 49 | slight increase | 27 | potent activity | 0.02 | quite low | 0.27 |
